Source: article PMC6397177, “An uncharacterized FMAG_01619 protein from Fusobacterium mortiferum ATCC 9817 demonstrates that some bacterial macrodomains can also act as poly-ADP-ribosylhydrolases” (Scientific Reports, 2019)

Columns and labels:
FmTARG1 [1] = target: T1, FmTARG1 (Fusobacterium mortiferum, UniProt A0ABN5JAQ3); test: HPLC deacetylation assay; format: biochemical; details: competitive against OAADPr; Bis-Tris pH 7.3, 300 mM NaCl, 25 °C
T1 construct: gene C4N19_10685; synthetic gene in pSol-AFV, AFV-tag removed with TEV protease; expressed in E. coli 10G
T1 sequence (A0ABN5JAQ3 2-142 limits assumed): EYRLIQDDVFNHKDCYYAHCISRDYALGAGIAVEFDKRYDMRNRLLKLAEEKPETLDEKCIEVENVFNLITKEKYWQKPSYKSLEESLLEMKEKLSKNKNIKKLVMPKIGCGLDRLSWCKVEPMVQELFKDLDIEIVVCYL

FmTARG1 [2] = target: T1, FmTARG1; test: thermal shift assay, SYPRO Orange; format: binding; details: 100 mM phosphate pH 7.0; ligand up to 50 mM
hTARG1 = target: T2, hTARG1 (Homo sapiens, UniProt Q9Y530); test: thermal shift assay, SYPRO Orange; format: binding; details: 100 mM phosphate pH 7.0; ligand up to 50 mM
T2 construct: gene OARD1; synthetic gene in pET28a; E. coli Rosetta2(DE3); tag removal not clearly told
T2 sequence (Q9Y530 2-152): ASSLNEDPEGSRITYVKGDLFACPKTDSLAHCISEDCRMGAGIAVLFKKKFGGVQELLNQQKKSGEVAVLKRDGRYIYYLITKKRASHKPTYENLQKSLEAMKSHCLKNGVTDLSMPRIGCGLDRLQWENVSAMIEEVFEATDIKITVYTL

Q: `Nc1ncnc2c1ncn2[C@@H]1O[C@H](COP(=O)(O)OP(=O)(O)OC[C@H]2OC(O)[C@H](O)[C@@H]2O)[C@@H](O)[C@H]1O` (some centres unmarked) [ADPr] was tested. Which Ki (FmTARG1 [1]) did it give?
A: 203 ± 10 µM

Q: Which results are given for `Nc1ncnc2c1ncn2[C@@H]1O[C@H](COP(=O)(O)O)[C@@H](O)[C@H]1O` [AMP]?
A: dTm (FmTARG1 [2]): AMP and ADP, also bind to both enzymes in a dose-dependent manner; dTm (hTARG1): AMP and ADP, also bind to both enzymes in a dose-dependent manner

Q: Which dTm (FmTARG1 [2]) does the source give for `Nc1ncnc2c1ncn2[C@@H]1O[C@H](COP(=O)(O)OP(=O)(O)O)[C@@H](O)[C@H]1O` [ADP] here?
A: AMP and ADP, also bind to both enzymes in a dose-dependent manner

Q: What about the dTm (hTARG1) of the same compound?
A: AMP and ADP, also bind to both enzymes in a dose-dependent manner
